Paper PMC12645137 (Current Neuropharmacology, 2025)

Key:
[1] = test system: scopolamine-induced amnesic mice; assay: Elevated Plus Maze (EPM) test in scopolamine-induced amnesic animals; format: in vivo, albino mice; conditions: scopolamine 1 mg/kg amnesic mice, i.p., AN-1 10 mg/kg, progesterone 10 mg/kg, galantamine 8 mg/kg
Protocol: (§1) The mice were divided into the following five groups, and each group had six animals. The standard drug and test samples were carefully administered to the mice via the intraperitoneal route.
(§2) Group IV (Progesterone treated group) = Animals treated with 10 mg/kg progesterone and scopolamine 1 mg/kg.
(§3) Group V (Test compound group) = Animals received 10 mg/kg progesterone derivative (AN-1) and 1 mg/kg scopolamine.
The EPM behavioral test was performed to assess the learning abilities and long-term spatial memory of the experimental animals. The EPM apparatus has the appearance of a plus sign which was 50 cm elevated from the ground. The apparatus has two open arms (50 cm long and 10 cm wide), and two closed arms having dimensions of 20, 50, and 10 cm in height, length, and width, respectively. The open and closed arms were joined with a 10 × 10 central square.
After 30 minutes of the intraperitoneal drug administration on the seventh day of treatment, mice of each group were placed over the open arm end of the EPM apparatus in such a way that their faces were away from the midpoint of the apparatus. Transfer latency (TL) is the time a mouse takes to enter the closed arm entirely with all its legs from the open arm of the apparatus. The time of initial transfer latency (ITL) was observed, and then the animals were allowed freely for 1.5 minutes to search the EPM apparatus.
After twenty-four hours of the training period, test trials were conducted to determine the retention of tasks that were learnt during training. Retention transfer latency (RTL) was measured by placing the experimental mice at the open end of the apparatus, ensuring that they faced away from its midpoint. The mouse was allowed to enter the closed arm entirely with all its legs. A decline in TL compared to ITL indicated an improvement in memory.

DPPH antioxidant assay = format: physicochemical; conditions: for % Inhibition (DPPH free radicals): mean ± SEM
Protocol: To evaluate the in-vitro antioxidant potential of the synthesized derivatives, a previously reported 1,1 Diphenyl, 2 Picrylhydrazyl (DPPH) assay was utilized. The DPPH solution was prepared by dissolving twenty-four mg DPPH in methanol (100 ml). Test sample solutions in various concentrations (62.50 to 1000 μg/mL) were also prepared. From each dilution, 1 ml sample solution was taken to which 1 ml solution of DPPH was added. The solution mixture was incubated at 23°C for 30 minutes in the dark and then subjected to a UV-visible spectrophotometer to note the absorbance at 517 nm. The absorbance values of all samples were taken in triplicate. Ascorbic acid served as positive control, while negative control only contained a solution of DPPH having no test samples. The % free radical scavenging potential of our compounds was determined by the given formula.
% free radical scavenging activity = [drawing 2] x100
X is the control absorbance, whereas X1 is the absorbance of the test sample.

mice = assay: Acute toxicity study; format: in vivo, albino mice; conditions: i.p., doses 25 to 1000 mg/kg
Protocol: In our study, experimental animals (albino mice male/female weighing 18-32 gm) were obtained from the National Institute of Health (NIH), Islamabad, Pakistan. These animals were provided adequate food, water, and light (ad libitum). Appropriate conditions were maintained as per laboratory specifications, including a temperature of 22°C a dark and light cycle of 12 hours each. As per the Animals Scientific Procedure Act 1986, UK, the in-vivo studies were performed on experimental animals from 9:00 am to 4:00 pm. The departmental committee of research ethics of the Pharmacy Department, University of Malakand, approved the study protocol via reference no DREC/20210622/50.
Acute toxicity was carried out for the safety profile assessment of our test compounds. For this purpose, the mice were grouped into six different groups (n = 6). The test compound was given to each mouse at different doses (25 to 1000 mg/kg) via the intraperitoneal (i.p) route. Changes in behaviour such as convulsions, hyperactivity, writhing, sedation, righting reflex, aggressiveness, grooming, ataxia, motor activity (increased or decreased), respiratory arrest, and mortality were observed after the administration of sample solution for the first two hours and then again for 24 hours.

[2] = test system: scopolamine-induced amnesic mice; assay: Y-Maze test in scopolamine-induced amnesic animals; format: in vivo, albino mice; conditions: scopolamine 1 mg/kg amnesic mice, i.p., AN-1 10 mg/kg, progesterone 10 mg/kg, galantamine 8 mg/kg, disease group 22.27%
Protocol: as §1, §2, §3
To determine the effect of synthesized compounds on short-term learning and memory of experimental mice, a Y-Maze test was used. The Y-Maze apparatus consists of three arms that are fixed at 120° angle from each other and have 30 cm length, 20 cm height, and 8 cm width dimensions. After 30 minutes of giving test compounds intraperitoneally, the mouse was positioned at the arm end in such a way that it faced away from the midpoint of the apparatus and was permitted to search the apparatus for five minutes freely. The arm entry sequence and number by each mouse were recorded for 5 minutes using a digital camera. Alternation is defined as the successive entry into 3 dissimilar arms by a mouse (i.e., CBA, BCA, ABC). When the back paws of a mouse were found inside an arm wholly, the arm entry was considered completed. Seventy percent v/v ethanol was used for cleaning the apparatus and to avoid smell cues. The spontaneous alternation performance (SAP) percentage was calculated using the following formula [37]:
% alternation = [(alternations number) / (total arm entries number – 2)] × 100

[3] = test system: scopolamine-induced amnesic mice; assay: Open field test (OFT) in scopolamine-induced amnesic animals; format: in vivo, albino mice; conditions: i.p., AN-1 10 mg/kg, progesterone 10 mg/kg, galantamine 8 mg/kg
Protocol: as §1, §2, §3
Open field behavioral test was carried out for the assessment of locomotor activities like the number of line crossing. The apparatus was made from plywood having 81×81×28.5 cm dimensions. Sixteen squares (20×20 cm) were made on the base of the apparatus by drawing four horizontal and four vertical lines. […] Furthermore, exploration time spent by mice in central and peripheral areas of the apparatus was also recorded by allowing the mice for 30 minutes to explore the apparatus.

## COc1ccc(C/N=C(/C)[C@H]2CC[C@H]3[C@@H]4CCC5=CC(=O)CC[C@]5(C)[C@H]4CC[C@]23C)cc1 [AN1, (8S,9S,10R,13S,14S)-17-((Z)-1-((4-methoxybenzyl)imino)ethyl)-10,13-dimethyl-1,2,6,7,8,9,10,11,12,13,14,15,16,17-tetradecahydro-3H-cyc-lopenta[a]phenanthren-3-one]
[1]; 24 h after training, disease group 67 sec
  retention transfer latency (RTL): 45.33 s
[1]; disease group 73 sec
  initial transfer latency (ITL): 50.16 s
DPPH antioxidant assay
  IC50: 57.2 µM
DPPH antioxidant assay; 62.5 µg/ml
  % Inhibition (DPPH free radicals): 56.46 ± 1.12%
DPPH antioxidant assay; 125 µg/ml
  % Inhibition (DPPH free radicals): 67.64 ± 3.04%
DPPH antioxidant assay; 250 µg/ml
  % Inhibition (DPPH free radicals): 70.00 ± 3.95%
DPPH antioxidant assay; 500 µg/ml
  % Inhibition (DPPH free radicals): 76.15 ± 2.31%
DPPH antioxidant assay; 1000 µg/ml
  % Inhibition (DPPH free radicals): 83.37 ± 2.03%
mice
  toxic dose (mortality observed): ≥ 1000 mg/kg
mice; observed 2 h and 24 h
  dose safe, without toxic effects, mortality or unusual behavioral response: ≤ 500 mg/kg
[2]
  spontaneous alternation: 42.72 ± 9.41%
[2]; listed as AN-1
  spontaneous alternation: 42.72%
[3]; 5 min, scopolamine 1 mg/kg amnesic mice, disease group 26.33
  number of lines crossed: 43.66
[3]; 30 min exploration, scopolamine 1 mg/kg amnesic mice, disease group 4.66
  time spent in the central area: 10.33 mint
[3]; versus scopolamine/disease group
  time spent in the peripheral area: significantly (p<0.01) less time in the peripheral area
